# In ChEMBL document CHEMBL1152750, “Design, synthesis and structure-activity relationships of 1,3,4-oxadiazole derivatives as novel inhibitors of glycogen synthase kinase-3beta” (Bioorg Med Chem, 2009):
# pIC50: −log10 of the molar value.
# What was measured:
# [1] = biological target: Glycogen synthase kinase-3 beta (Homo sapiens, UniProt P49841); test: Inhibition of human GSK3-beta
# [2] = biological target: Mast/stem cell growth factor receptor Kit (Homo sapiens, UniProt P10721); test: Inhibition of cKit
# [3] = biological target: Mitogen-activated protein kinase 3 (Homo sapiens, UniProt P27361); test: Inhibition of ERK1
# [4] = biological target: Mitogen-activated protein kinase kinase kinase 1 (Homo sapiens, UniProt Q13233); test: Inhibition of MEKK1
# [5] = biological target: Casein kinase I isoform delta (Homo sapiens, UniProt P48730); test: Inhibition of CK1delta expressed in Escherichia coli
# [6] = Oral bioavailability in rat at 1 mg/kg; type: ADME, organism-based; settings: in vivo
# [7] = Total clearance in rat at 0.1 mg/kg, iv; type: ADME, organism-based; set-up: dose 0.1 mg/kg, route intravenous; settings: in vivo
# [8] = biological target: Aurora kinase B (Homo sapiens, UniProt Q96GD4); test: Inhibition of Aurora B
# [9] = tested on: Rattus norvegicus; test: Volume of distribution at steady state in rat […]; type: ADME, organism-based; settings: in vivo
# [10] = biological target: Proto-oncogene tyrosine-protein kinase Src (Homo sapiens, UniProt P12931); test: Inhibition of SRC
# [11] = biological target: Protein kinase C theta type (Homo sapiens, UniProt Q04759); test: Inhibition of PKCtheta
# [12] = biological target: Mitogen-activated protein kinase 14 (Homo sapiens, UniProt Q16539); test: Inhibition of p38alpha
# [13] = biological target: Inhibitor of nuclear factor kappa-B kinase subunit beta (Homo sapiens, UniProt O14920); test: Inhibition of IKK-beta
# [14] = biological target: Cyclin-dependent kinase 1 (Homo sapiens, UniProt P06493); test: Inhibition of CDK1
# [15] = biological target: Receptor tyrosine-protein kinase erbB-2 (Homo sapiens, UniProt P04626); test: Inhibition of HER2
# [16] = Inhibition of PKA expressed in Escherichia coli
# [17] = biological target: Serine/threonine-protein kinase B-raf (Homo sapiens, UniProt P15056); test: Inhibition of BRAF
# [18] = biological target: Cyclin-dependent kinase 5 (Homo sapiens, UniProt Q00535); test: Inhibition of CDK5
# [19] = biological target: Mitogen-activated protein kinase 8 (Homo sapiens, UniProt P45983); test: Inhibition of JNK1
# [20] = biological target: Cyclin-dependent kinase 2 (Homo sapiens, UniProt P24941); test: Inhibition of CDK2
# [21] = biological target: Dual specificity mitogen-activated protein kinase kinase 1 (Homo sapiens, UniProt Q02750); test: Inhibition of MEK1
# [22] = AUC in rat at 1 mg/kg, po; type: ADME, organism-based; set-up: dose 1 mg/kg, route oral; settings: plasma
# [23] = biological target: Angiopoietin-1 receptor (Homo sapiens, UniProt Q02763); test: Inhibition of Tie2
# [24] = biological target: Tyrosine-protein kinase Lck (Homo sapiens, UniProt P06239); test: Inhibition of Lck
# [25] = Inhibition of VEGFR
# [26] = biological target: Fibroblast growth factor receptor 3 (Homo sapiens, UniProt P22607); test: Inhibition of FGFR3
# [27] = biological target: Hepatocyte growth factor receptor (Homo sapiens, UniProt P08581); test: Inhibition of cMet
# Chain of Glycogen synthase kinase-3 beta (P49841 whole entry): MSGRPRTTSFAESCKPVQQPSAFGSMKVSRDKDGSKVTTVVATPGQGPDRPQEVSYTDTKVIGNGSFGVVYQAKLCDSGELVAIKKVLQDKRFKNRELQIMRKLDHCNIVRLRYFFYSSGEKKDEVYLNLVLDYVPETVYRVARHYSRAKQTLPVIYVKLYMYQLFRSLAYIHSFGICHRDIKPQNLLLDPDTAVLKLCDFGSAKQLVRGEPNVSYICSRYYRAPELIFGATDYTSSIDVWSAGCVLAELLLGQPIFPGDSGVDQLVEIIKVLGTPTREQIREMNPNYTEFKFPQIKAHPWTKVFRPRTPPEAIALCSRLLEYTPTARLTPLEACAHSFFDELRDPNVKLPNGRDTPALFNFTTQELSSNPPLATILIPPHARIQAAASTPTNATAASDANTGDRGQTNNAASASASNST
# Chain of Proto-oncogene tyrosine-protein kinase Src (P12931 2-536 limits assumed): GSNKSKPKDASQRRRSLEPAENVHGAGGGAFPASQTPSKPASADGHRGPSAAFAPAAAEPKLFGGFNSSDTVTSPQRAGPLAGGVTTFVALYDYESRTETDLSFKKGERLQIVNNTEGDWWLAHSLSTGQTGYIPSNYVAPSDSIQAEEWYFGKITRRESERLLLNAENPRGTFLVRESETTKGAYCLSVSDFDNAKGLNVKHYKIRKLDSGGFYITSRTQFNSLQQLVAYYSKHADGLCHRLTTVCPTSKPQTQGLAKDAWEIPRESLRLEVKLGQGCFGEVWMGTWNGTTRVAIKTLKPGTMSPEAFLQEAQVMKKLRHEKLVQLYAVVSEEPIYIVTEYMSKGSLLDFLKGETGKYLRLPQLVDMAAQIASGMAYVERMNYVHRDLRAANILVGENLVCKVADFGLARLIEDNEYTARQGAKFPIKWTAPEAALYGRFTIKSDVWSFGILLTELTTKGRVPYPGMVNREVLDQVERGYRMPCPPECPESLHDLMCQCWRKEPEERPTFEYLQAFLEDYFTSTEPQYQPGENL
# Chain of Angiopoietin-1 receptor (Q02763 whole entry): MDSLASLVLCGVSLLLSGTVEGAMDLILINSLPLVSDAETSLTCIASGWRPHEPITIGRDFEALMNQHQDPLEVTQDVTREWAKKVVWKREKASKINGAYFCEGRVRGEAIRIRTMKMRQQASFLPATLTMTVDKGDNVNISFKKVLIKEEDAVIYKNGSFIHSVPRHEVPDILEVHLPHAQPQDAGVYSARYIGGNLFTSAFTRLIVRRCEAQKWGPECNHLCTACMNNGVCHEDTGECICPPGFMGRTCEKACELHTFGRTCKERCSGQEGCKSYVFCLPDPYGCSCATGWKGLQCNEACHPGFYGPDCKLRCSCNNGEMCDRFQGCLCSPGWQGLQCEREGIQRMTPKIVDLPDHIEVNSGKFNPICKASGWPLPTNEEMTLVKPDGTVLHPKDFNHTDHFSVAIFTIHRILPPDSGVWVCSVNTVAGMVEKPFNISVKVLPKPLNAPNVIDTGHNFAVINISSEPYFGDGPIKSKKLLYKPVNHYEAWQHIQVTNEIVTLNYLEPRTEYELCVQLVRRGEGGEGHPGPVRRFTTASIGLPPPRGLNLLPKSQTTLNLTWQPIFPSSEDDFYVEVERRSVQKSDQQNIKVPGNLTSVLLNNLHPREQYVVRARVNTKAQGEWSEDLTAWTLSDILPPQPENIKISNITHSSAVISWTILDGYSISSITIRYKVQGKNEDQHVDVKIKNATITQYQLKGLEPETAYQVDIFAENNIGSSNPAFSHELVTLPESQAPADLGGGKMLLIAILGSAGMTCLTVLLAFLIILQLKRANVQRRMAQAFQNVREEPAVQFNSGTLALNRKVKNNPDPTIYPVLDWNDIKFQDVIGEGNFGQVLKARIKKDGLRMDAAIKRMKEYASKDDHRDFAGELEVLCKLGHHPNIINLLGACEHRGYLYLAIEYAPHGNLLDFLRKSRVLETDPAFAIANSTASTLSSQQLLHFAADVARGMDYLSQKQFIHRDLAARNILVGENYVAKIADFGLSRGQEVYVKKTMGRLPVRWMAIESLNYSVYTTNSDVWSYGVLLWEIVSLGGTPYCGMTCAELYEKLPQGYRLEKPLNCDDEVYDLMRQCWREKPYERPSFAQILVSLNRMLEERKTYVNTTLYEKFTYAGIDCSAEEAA
# Chain of Mitogen-activated protein kinase 3 (P27361 whole entry): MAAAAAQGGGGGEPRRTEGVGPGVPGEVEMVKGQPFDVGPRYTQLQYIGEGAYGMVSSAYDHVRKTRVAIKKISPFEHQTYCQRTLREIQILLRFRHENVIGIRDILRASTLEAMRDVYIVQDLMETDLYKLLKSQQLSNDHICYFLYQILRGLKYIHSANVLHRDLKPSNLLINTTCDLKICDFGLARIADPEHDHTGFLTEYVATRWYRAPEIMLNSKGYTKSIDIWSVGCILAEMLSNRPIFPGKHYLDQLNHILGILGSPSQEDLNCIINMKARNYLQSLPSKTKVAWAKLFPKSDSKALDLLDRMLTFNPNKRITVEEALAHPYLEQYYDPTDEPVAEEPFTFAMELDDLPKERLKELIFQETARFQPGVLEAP
# Chain of Dual specificity mitogen-activated protein kinase kinase 1 (Q02750 whole entry): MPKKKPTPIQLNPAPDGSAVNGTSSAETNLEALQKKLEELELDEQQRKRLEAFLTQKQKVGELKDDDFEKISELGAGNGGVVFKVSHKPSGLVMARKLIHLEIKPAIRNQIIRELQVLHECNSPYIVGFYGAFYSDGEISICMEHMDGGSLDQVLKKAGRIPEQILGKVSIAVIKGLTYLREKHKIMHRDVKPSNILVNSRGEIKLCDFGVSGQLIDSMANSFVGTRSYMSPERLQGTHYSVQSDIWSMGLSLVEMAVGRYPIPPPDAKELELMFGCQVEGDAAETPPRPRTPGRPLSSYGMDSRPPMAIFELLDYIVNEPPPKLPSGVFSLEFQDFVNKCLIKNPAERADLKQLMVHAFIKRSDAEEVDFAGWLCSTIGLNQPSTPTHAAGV
# Chain of Mast/stem cell growth factor receptor Kit (P10721 whole entry): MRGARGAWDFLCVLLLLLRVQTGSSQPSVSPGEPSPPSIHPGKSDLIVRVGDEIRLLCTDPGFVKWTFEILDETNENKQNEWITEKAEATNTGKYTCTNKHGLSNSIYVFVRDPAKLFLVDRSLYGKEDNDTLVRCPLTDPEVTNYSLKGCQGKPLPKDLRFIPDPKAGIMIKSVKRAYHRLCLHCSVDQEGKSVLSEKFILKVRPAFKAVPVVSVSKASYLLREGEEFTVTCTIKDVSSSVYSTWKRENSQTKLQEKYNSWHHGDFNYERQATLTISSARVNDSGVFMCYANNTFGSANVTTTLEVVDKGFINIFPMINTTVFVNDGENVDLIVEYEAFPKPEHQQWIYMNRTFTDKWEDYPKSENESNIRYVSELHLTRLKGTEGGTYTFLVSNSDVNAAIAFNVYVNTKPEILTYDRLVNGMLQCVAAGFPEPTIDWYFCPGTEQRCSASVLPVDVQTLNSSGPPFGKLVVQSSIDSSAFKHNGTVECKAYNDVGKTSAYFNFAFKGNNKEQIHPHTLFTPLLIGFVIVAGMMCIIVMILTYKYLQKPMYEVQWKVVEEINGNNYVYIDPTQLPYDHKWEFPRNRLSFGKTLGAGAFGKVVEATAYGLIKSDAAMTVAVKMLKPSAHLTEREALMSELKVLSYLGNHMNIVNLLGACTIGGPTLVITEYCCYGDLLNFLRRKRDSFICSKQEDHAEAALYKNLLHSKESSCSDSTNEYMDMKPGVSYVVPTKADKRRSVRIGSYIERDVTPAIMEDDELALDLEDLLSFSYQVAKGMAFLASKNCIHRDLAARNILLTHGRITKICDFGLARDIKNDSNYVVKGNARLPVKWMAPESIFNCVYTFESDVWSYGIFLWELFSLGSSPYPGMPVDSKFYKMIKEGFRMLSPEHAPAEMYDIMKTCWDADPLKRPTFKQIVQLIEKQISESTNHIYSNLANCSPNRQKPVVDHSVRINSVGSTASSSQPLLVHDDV
# Chain of Fibroblast growth factor receptor 3 (P22607 whole entry): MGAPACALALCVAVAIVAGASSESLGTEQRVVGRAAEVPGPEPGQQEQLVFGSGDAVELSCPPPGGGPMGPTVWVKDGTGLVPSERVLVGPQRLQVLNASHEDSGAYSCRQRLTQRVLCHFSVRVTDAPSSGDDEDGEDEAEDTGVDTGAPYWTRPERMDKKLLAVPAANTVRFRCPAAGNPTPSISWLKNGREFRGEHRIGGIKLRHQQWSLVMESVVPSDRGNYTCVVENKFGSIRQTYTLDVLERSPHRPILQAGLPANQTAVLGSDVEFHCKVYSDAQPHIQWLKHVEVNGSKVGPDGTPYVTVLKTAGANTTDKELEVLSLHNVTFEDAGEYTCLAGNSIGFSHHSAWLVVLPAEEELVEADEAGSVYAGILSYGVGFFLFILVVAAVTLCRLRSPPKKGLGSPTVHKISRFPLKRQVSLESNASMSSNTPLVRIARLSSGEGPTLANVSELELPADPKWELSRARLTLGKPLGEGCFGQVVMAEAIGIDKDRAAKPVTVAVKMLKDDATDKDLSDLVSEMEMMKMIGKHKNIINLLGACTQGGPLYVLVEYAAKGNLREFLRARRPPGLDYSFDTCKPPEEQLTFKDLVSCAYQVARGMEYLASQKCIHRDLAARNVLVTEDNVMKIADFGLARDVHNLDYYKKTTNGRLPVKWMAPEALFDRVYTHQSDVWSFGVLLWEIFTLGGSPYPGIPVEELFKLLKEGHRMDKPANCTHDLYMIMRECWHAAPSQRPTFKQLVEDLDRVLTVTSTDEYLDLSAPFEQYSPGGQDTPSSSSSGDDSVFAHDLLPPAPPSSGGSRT
# Chain of Cyclin-dependent kinase 5 (Q00535 whole entry): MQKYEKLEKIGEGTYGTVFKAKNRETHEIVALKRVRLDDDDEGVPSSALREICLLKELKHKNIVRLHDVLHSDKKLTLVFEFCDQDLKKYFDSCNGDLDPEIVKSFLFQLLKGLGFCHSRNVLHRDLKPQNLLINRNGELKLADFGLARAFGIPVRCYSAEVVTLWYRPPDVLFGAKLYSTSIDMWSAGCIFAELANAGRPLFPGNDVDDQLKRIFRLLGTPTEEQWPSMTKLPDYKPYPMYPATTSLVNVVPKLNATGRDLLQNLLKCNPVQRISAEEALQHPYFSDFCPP
smiles,measurement,setting,value
Clc1ccccc1CSc1nnc(-c2ccc3c(c2)CCO3)o1,pIC50,[1],6.70
COc1ccc(CSc2nnc(-c3ccc4c(c3)CCO4)o2)cc1F,pIC50,[1],7.36
Fc1cccc(CSc2nnc(-c3ccc4c(c3)CCO4)o2)c1,pIC50,[1],7.27
COc1ccc(-c2coc3ccc(-c4nnc(SCc5cccc(C(F)(F)F)c5)o4)cc23)cc1,pIC50,[1],8.08
COc1ccc(CSc2nnc(-c3ccc4occc4c3)o2)cc1C(F)(F)F,pIC50,[1],8.31
COC(=O)c1cccc(CSc2nnc(-c3ccc4c(c3)CCO4)o2)c1,pIC50,[1],6.20
c1ccc(CSc2nnc(-c3ccc4c(c3)CCO4)o2)cc1,pIC50,[1],6.68
COc1ccc(CSc2nnc(-c3ccc4c(c3)CCO4)o2)cc1,pIC50,[1],6.66
Fc1cccc(SCc2nnc(-c3ccc4c(c3)CCO4)o2)c1,pIC50,[1],6.17
COc1ccc(-n2cnc3ccc(-c4nnc(SCc5ccc(OC)c(C(F)(F)F)c5)o4)cc32)cc1,pIC50,[1],8.07
Fc1cccc(CCc2nnc(-c3ccc4c(c3)CCO4)o2)c1,pIC50,[1],6.47
COc1ccc(CSc2nnc(-c3ccc4c(c3)CCO4)o2)cc1C#N,pIC50,[1],7.55
COc1ccc(-n2cnc3ccc(-c4nnc(SCc5cccc(C(F)(F)F)c5)o4)cc32)cc1,pIC50,[1],8.60
Clc1ccc(CSc2nnc(-c3ccc4c(c3)CCO4)o2)cc1,pIC50,[1],6.55
Fc1cccc(CNc2nnc(-c3ccc4c(c3)CCO4)o2)c1,pIC50,[1],6.48
Fc1cccc(COc2nnc(-c3ccc4c(c3)CCO4)o2)c1,pIC50,[1],< 5.00
Cn1cnc2ccc(-c3nnc(SCc4cccc(C(F)(F)F)c4)o3)cc21,pIC50,[1],8.03
N#Cc1cccc(CSc2nnc(-c3ccc4c(c3)CCO4)o2)c1,pIC50,[1],7.04
COc1ccc(-c2coc3ccc(-c4nnc(SCc5cccc(C#N)c5)o4)cc23)cc1,pIC50,[1],8.46
COc1ccc(CSc2nnc(-c3ccc4ncsc4c3)o2)cc1C(F)(F)F,pIC50,[1],8.51
FC(F)(F)c1cccc(CSc2nnc(-c3ccc4c(c3)CCO4)o2)c1,pIC50,[1],7.17
COc1ccc(-n2cnc3ccc(-c4nnc(SCc5cccc(C#N)c5)o4)cc32)cc1,pIC50,[2],< 5.00
same,pIC50,[3],< 5.00
same,pIC50,[4],5.09
same,pIC50,[5],< 5.00
same,bioavailability,[6],1.7%
same,clearance,[7],35.6 mL/min/kg
same,pIC50,[8],< 5.00
same,pIC50,[1],8.64
same,Vdss,[9],1.453 L/kg
same,pIC50,[10],< 5.00
same,pIC50,[11],5.46
same,pIC50,[12],< 5.00
same,pIC50,[13],< 5.00
same,pIC50,[14],5.34
same,pIC50,[15],< 5.00
same,pIC50,[16],< 5.00
same,pIC50,[17],< 5.00
same,pIC50,[18],< 5.00
same,pIC50,[19],< 5.00
same,pIC50,[20],< 5.00
same,pIC50,[21],< 5.00
same,AUC,[22],7.9 ng·h/mL
same,pIC50,[23],< 5.00
same,pIC50,[24],< 5.00
same,pIC50,[25],< 5.00
same,pIC50,[26],< 5.00
same,pIC50,[27],< 5.00
COc1ccc(CSc2nnc(-c3ccc4[nH]ncc4c3)o2)cc1C(F)(F)F,pIC50,[1],7.80
Clc1cccc(CSc2nnc(-c3ccc4c(c3)CCO4)o2)c1,pIC50,[1],7.03
COc1ccc(CSc2nnc(-c3ccc4ncccc4c3)o2)cc1C(F)(F)F,pIC50,[1],7.74
COc1ccc(CSc2nnc(-c3ccc4c(c3)CCO4)o2)cc1Cl,pIC50,[1],7.89
O=[N+]([O-])c1ccc(NCCNc2ncc(-c3ncc[nH]3)c(-c3ccc(Cl)cc3Cl)n2)nc1,pIC50,[1],8.00
COc1ccc(-c2coc3ccc(-c4nnc(SCc5ccc(OC)c(C(F)(F)F)c5)o4)cc23)cc1,pIC50,[1],7.60
COc1ccc(CSc2nnc(-c3ccc4c(c3)CCO4)o2)cc1C(F)(F)F,pIC50,[1],8.24
